Publication PMC9322052, “Synthesis and Biological Activity Screening of Newly Synthesized Trimethoxyphenyl-Based Analogues as Potential Anticancer Agents” (Molecules, 2022)

Experiments:
[1] = test system: hepatocellular carcinoma HepG2 cell line; assay: MTT cytotoxicity assay, HepG2; format: cell-based, human; conditions: Homo sapiens, HepG2, 24 h, 24 h treatment, mean ± SE
Procedure: All the newly synthesized analogs were evaluated for their in vitro cytotoxicity against the hepatocellular carcinoma HepG2 cell line. Podo was utilized as a reference control in the current study. […] The N-phenyl triazinone derivative 9 was further investigated for its cytotoxic effects against normal liver cell line HL-7702.
MTT colorimetric assay was carried out to investigate the impact of the newly synthesized compounds 2–11 on hepatocellular carcinoma (HepG2) and normal liver cell line (HL-7702) cell lines. See Section 3.3.1 in Supplementary Material.
(§1) 3.3.1. Cytotoxic activity evaluation
To measure the cytotoxic activity of the synthesized derivatives 2a-11 in hepatocel-lular carcinoma (HepG2) cell line (ATCC Cat No. HB-8065) as well as normal human liver cell line HL-7702 (ATCC Cat. No. 77402), cell viability assay was assessed using MTT assay method. Cells at density of 1 x 104 were seeded in a 96-well plate at 37 °C for 24 h under 5% CO2. After incubation, the cells were treated with different concentrations of the test compounds 2a-11 and incubated for 24 h, then 20 μl of MTT solution at 5 mg/mL was applied and incubated for 4 h at 37 °C. Dimethyl sulphoxide (DMSO) in volume of 100 µl was added to each well to dissolve the purple formazan that had formed. The color inten-sity of the formazan product, which represents the growth condition of the cells, is quan-tified by using an ELISA plate reader (EXL 800, USA) at 570 nm absorbance. The experi-mental conditions were carried out with at least three replicates, and the experiments were repeated at least three times.
3.3.2. Tubulin inhibitions Assay
(§2) Compounds 9, 10 and 11 were evaluated for their tubulin inhibitory activity levels according to the manufacturer’s instructions using # abcam Human Beta-tubulin simplestep […]
3.3.3. Cell cycle analysis of compound 9
Cell cycle analysis in HepG2 cells was investigated using fluorescent Annexin V-FITC/ PI detection kit (BioVision EZCellTM Cell Cycle Analysis Kit Catalog #K920) by flow cytometry assay. HepG2 cells at a density of 2 × 10^5 per well were harvested and washed twice in PBS. After that, the cells were incubated at 37 °C and 5% CO2. […] Afterward, medium was stained with DNA flu-orochrome PI for 15 min at 37 °C. The samples were immediately analyzed using Facs Calibur flow cytometer (Becton and Dickinson, Heidelberg, Germany).
3.3.4. Apoptosis assay for compound 9
Apoptosis in HepG2 cells was investigated using fluorescent Annexin V-FITC/ PI de-tection kit (BioVision Annexin V-FITC Apoptosis Detection Kit, Catalog #: K101) by flow cy-tometry assay. HepG2 cells at a density of 2 × 10^5 per well were treated with compound 9 at its IC50 (μM) for 48 h, then the cells were harvested and stained with Annexin V-FITC/ PI dye for 15 min in the dark at 37 °C. The samples were immediately analyzed using FACS Calibur flow cytometer (Becton and Dickinson, Heidelberg, Germany).
3.3.5. Measurement of mitochondrial membrane potential (MMP) for compound 9 MMP was measured by FACS analysis using abcam ab113852TMRE Mitochondrial Membrane Potential Assay Kit with DiOC2(3) staining using MitoProbe™ DiOC2(3) Assay Kit for Flow Cytometry (M34150). After treatment with compound 9 at its IC50 concentra-tion, cells were stained with DiOC2(3) dye for 30 min in the incubator, then harvested and washed with PBS. DiOC2(3)-stained cells were represented with Annexin binding buffer and incubated at 37 °C for 15 min. The samples were immediately analyzed using cell […]
3.3.6. Effect on p53, Bax and Bcl-2 p53, Bax and Bcl2 enzyme activities in HepG2 cells were detected in the presence of com-pound 9 at its IC50 concentration (μM). The levels of the tumor suppressor gene p53, apoptotic markers Bax as well as the anti-apoptotic marker Bcl-2 were assessed using p53 ELISA kit, Human Bax ELISA kit and Bcl-2 Elisa kit. […]

HepG2 cells = assay: Mitochondrial membrane potential by flow cytometry; format: cell-based, human; conditions: HepG2, 1.38 μM (IC50), 48 h
Procedure: Mitochondrial Membrane Potential (MMP) plays a vital role in the initiation of the apoptosis process. Loss of MMP is characteristic of an early stage of apoptosis.
MMP was measured by flow cytometry analysis in HepG2 cells according to the manufacturer’s directions. See Section 3.3.5 in Supplementary Material.
Figure 5 Compound 9 promotes MMP dissipation in HepG2 cells. (A) HepG2 cells were treated with 1.38 μM of compound 9 for 48 h. MMP was quantized using image-based flow cytometry. (B) The quantification of MMP in HepG2 cells after treatment with compound 9 at its IC50 concentration (μM). […]
(§3) To measure the cytotoxic activity of the synthesized derivatives 2a-11 in hepatocel-lular carcinoma (HepG2) cell line (ATCC Cat No. HB-8065) as well as normal human liver cell line HL-7702 (ATCC Cat. No. 77402), cell viability assay was assessed using MTT assay method. […] The color inten-sity of the formazan product, which represents the growth condition of the cells, is quan-tified by using an ELISA plate reader (EXL 800, USA) at 570 nm absorbance. […]
as §2

Bcl-2 = assay: ELISA quantification of Bcl-2 level; format: cell-based, human; conditions: HepG2, 1.38 μM (IC50), 48 h
Procedure: Compound 9 was screened for its ability to activate p53 and Bax as well as downregulate the level of Bcl-2 to investigate the mechanistic apoptotic pathway that catalyzed the apoptosis process. HepG2 cells were treated with compound 9 at a concentration equal to its IC50 in μM, and the level of p53, Bax, and Bcl-2 was quantized using ELISA analysis. The results obtained for compound 9 show the increase in the level of p53 and Bax by 8.91- and 4.50-fold, respectively, compared with the negative control samples.
Apoptotic markers (p53, Bax and Bcl-2) were measured in HepG2 cells using ELISA analysis according to the manufacturer’s directions. See Section 3.3.6 in Supplementary Material.
Figure 6 (A) The quantification of p53. (B) The quantification of Bax. (C) The quantification of Bcl-2. HepG2 cells were treated with 1.38 μM of compound 9 for 48 h and apoptotic markers were determined by ELISA assay.
as §1, §3

In the case of `COc1ccc(C2=N/C(=C\c3cc(OC)c(OC)c(OC)c3)C(=O)NN2c2ccccc2)cc1OC` [Compound 9, (Z)-3-(3,4-Dimethoxyphenyl)-2-Phenyl-5-(3,4,5-Trimethoxybenzylidene)-1,2-Dihydro-1,2,4-Triazin-6(5H)-one], the IC50 [1] is reported as 1.38 ± 0.15 µM, the “decrease in level of MMP compared with negative HepG2 cells” value (HepG2 cells) is reported as 3.12 fold and the “decrease in level of Bcl-2 compared with negative control” value (Bcl-2) is reported as 5.58 fold. The melting point was 248 to 250 °C.
